# Measured values from US4977138A, “FR901228 substance and preparation thereof” (Fujisawa Pharmaceutical Co., Ltd., priority 1988, dated 1990).
# Key:
# A549 (lung cancer) = assay: Inhibition of human tumor cell growth in vitro (MTT cytotoxicity test); type: cell-based; conditions: four days
# Description: (§1) The cytotoxicity test was performed in microtiter plates, with each well containing 3×10^3 tumor cells in 100 μl Dulbecco's minimum essential medium supplemented with 10% fetal calf serum, penicillin (50 units/ml) and streptomycin (50 μg/ml). The cells were incubated at 37° C. for four days and the colorimetric MTT [3-(4,5-dimethylthiazol-2-yl)-2,5-diphenyl tetrazolium bromide, made by Sigma] assay was performed according to the method described by Mosmann (J. Immunol. Methods, 65, 55-63, 1983). MTT was dissolved in phosphate buffer solution (PBS) at 5 mg/ml and filtered to sterilize and remove a small amount of insoluble residue. After the culture of human tumor cells was terminated, this MTT solution (10 μl per 100 μl medium) was added to all wells of an assay, and plates were further incubated at 37° C. for 4 hours. Acid-isopropanol (100 μl of 0.04N HCl in isopropanol) was added to all wells and mixed thoroughly to dissolve the dark blue crystals. After all crystals were dissolved, the plates were read on a 2-wavelength microplate photometer (Model MTP-22; Corona Electric Co., Ltd., Katsuta, Japan) at 550 nm, a reference wavelength of 660 nm. The object compound of this invention was dissolved in methanol and diluted in Dulbecco's minimum essential medium and added to the culture to give final concentration of 1 μg/ml or less.
# SW480 (colon cancer) = assay: as above; type: cell-based; conditions: four days
# Description: as §1
# MCF-7 (breast cancer) = assay: as above; type: cell-based; conditions: four days
# Description: as §1
# Aspergillus niger = assay: Antimicrobial activity, agar dilution method in Sabouraud medium; type: cell-based; conditions: 48 hours incubation at 25° C.
# Description: (§2) Antimicrobial activity of FR901228 was performed by an agar dilution method in Sabouraud medium.
# (§3) Minimum inhibitory concentration (MIC) is expressed in terms of μg/ml after 48 hours incubation at 25° C.
# [1] = test system: Aureobasidium pullulans IFO 4466; assay: as above; type: cell-based; conditions: 48 hours incubation at 25° C.
# Description: as §2, §3
# Shizosaccharomyces pombe = assay: as above; type: cell-based; conditions: 48 hours incubation at 25° C.
# Description: as §2, §3
# P388 murine leukemia = assay: Antitumor activity against P388 murine leukemia; type: in vivo, BDFl mice; conditions: for Mean Survival Time: once daily for four days from 24 hours after inoculation, BDFl mice; for Time (%) (T/C % of mean survival time): 100× treated group/control group
# Description: Antitumor activity of FR901228 substance was determined in murine tumor system. P388 leukemia cells […] were implanted intraperitoneally into BDFl mice (female, 8 weeks old). Twenty-four hours after the inoculation of tumor cells, FR901228 substance was administered intraperitoneally to mice. Administrations of FR901228 substance were continued intraperitoneally once daily for another three days. FR901228 substance was suspended in 0.9% saline. Control mice received intraperitoneal doses of 0.9% saline.
# Antitumor activity was expressed as the mean survival time of group and also expressed as the T/C % (100× treated group/control group) of mean survival time.
# [2] = Solubility of FR901228 substance in solvents; type: physicochemical
# [3] = 0.32 mg/kg/day intraperitoneally
# [4] = 1.0 mg/kg/day intraperitoneally
smiles,measurement,setting,value
C/C=C1\NC(=O)[C@H]2CSSCC/C=C/[C@H](CC(=O)N[C@H](C(C)C)C(=O)N2)OC(=O)[C@H](C(C)C)NC1=O [FR901228 substance],IC50,A549 (lung cancer),0.00082 µg/mL
same,IC50,SW480 (colon cancer),0.00057 µg/mL
same,IC50,MCF-7 (breast cancer),0.00099 µg/mL
same,MIC,Aspergillus niger,100 µg/mL
same,MIC,[1],10 µg/mL
same,MIC,Shizosaccharomyces pombe,10 µg/mL
same,Mean Survival Time,P388 murine leukemia; [3],14.25 days
same,Time (%) (T/C % of mean survival time),P388 murine leukemia; [3],158.3%
same,Mean Survival Time,P388 murine leukemia; [4],15.25 days
same,Time (%) (T/C % of mean survival time),P388 murine leukemia; [4],169.4%
same,Solubility,[2]; chloroform,soluble
same,Solubility,[2]; ethanol,sparingly soluble
same,Solubility,[2]; ethyl acetate,soluble
same,Solubility,[2]; hexane,insoluble
same,Solubility,[2]; methanol,sparingly soluble
same,Solubility,[2]; water,insoluble
